Data: ChEMBL document CHEMBL1147532, “The design, preparation and SAR of novel small molecule sodium (Na(+)) channel blockers” (Bioorg Med Chem Lett, 2004)

How the values were obtained:
CYP2D6 [1] = biological target: T1, CYP2D6 (Homo sapiens, UniProt P10635); assay: (§1) Inhibition of cytochrome P450 2D6 at 2 uM
CYP3A4 = CYP3A4 (Homo sapiens, UniProt P08684); assay: Inhibition of cytochrome P450 3A4 was determined at 2 uM
[2] = biological target: T2, Sodium channel alpha subunits; brain (Types I, II, III) (Rattus norvegicus, UniProt P04775+P04774+P08104); assay: In vitro inhibition of [3H]batrachotoxin binding to neurotoxin site 2 of sodium (Na+) channel in rat cerebral cortex membrane; format: cell membranes
Cytochrome P450 2D6 = Cytochrome P450 2D6 (Homo sapiens, UniProt P10635); assay: Predictive competitive inhibition of cytochrome P450 2D6 was determined in silico
CYP2D6 [3] = biological target: T1, CYP2D6; assay: as §1; format: ADME
Rattus norvegicus [4] = species: Rattus norvegicus; assay: Inhibition of tetrodotoxin (TTX) sensitive current by the compound was determined at 10 uM using whole-cell patch clamp tests in cultured rat dorsal root ganglion (DRG); format: functional
Rattus norvegicus [5] = species: Rattus norvegicus; assay: Inhibition of tetrodotoxin (TTX) resistant current by the compound was determined at 10 uM using whole-cell patch clamp tests in cultured rat dorsal root ganglion (DRG); format: functional
[6] = biological target: T2, Sodium channel alpha subunits; brain (Types I, II, III); assay: Inhibitory concentration against [3H]batrachotoxin binding to neurotoxin site 2 of sodium (Na+) channel in vitro in rat cerebral cortex membrane at 1 uM; format: cell membranes

Sequence of Cytochrome P450 2D6 (P10635 whole entry): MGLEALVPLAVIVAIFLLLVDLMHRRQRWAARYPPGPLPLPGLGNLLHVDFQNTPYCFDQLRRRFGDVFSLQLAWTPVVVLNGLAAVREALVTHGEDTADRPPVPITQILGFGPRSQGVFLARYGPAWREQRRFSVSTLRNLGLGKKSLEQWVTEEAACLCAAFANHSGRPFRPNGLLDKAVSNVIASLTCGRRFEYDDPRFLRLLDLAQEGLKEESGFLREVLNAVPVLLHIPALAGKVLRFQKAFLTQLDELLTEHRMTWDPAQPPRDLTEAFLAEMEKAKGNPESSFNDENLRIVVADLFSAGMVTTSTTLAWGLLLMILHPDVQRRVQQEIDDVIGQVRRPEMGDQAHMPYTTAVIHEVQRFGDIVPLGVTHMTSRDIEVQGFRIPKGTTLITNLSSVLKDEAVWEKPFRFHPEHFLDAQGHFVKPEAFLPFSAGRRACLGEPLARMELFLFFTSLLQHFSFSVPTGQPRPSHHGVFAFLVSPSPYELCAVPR
T1 sequence (P10635 whole entry): as above
Sequence of CYP3A4 (P08684 whole entry): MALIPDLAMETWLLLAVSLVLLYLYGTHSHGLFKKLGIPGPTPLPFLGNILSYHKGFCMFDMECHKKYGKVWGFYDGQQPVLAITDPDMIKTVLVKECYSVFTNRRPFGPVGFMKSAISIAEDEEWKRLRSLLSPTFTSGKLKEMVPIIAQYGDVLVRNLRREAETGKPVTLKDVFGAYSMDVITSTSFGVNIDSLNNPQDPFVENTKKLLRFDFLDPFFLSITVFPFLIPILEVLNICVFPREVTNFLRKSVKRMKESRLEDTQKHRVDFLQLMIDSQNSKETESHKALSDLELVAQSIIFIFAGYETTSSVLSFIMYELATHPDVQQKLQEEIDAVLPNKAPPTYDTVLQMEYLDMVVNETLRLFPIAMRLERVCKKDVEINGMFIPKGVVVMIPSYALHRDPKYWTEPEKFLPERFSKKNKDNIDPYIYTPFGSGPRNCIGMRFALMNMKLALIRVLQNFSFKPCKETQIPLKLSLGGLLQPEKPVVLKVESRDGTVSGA

Structure (SMILES) | inhibition at 2 µM (CYP2D6 [1]) [%] | inhibition at 2 µM (CYP3A4) [%] | IC50 [2] [nM] | Ki (Cytochrome P450 2D6) [µM] | inhibition at 2 µM (CYP2D6 [3]) [%] | Inhibition (Rattus norvegicus [4]) [%] | Inhibition (Rattus norvegicus [5]) [%] | IC50 [6] [nM]
COc1ccc(OCC(O)CN2CCN(C(CNC(=O)c3ccccc3OC)c3ccccc3)CC2)cc1 (stereo unspecified) | 9 | 93 | 721 | 8 | – | – | – | –
COc1ccc(CNC(=O)C(c2ccc(C(F)(F)F)cc2)N2CCN(CC(O)COc3c(C)cccc3C)CC2)cc1 (stereo unspecified) | 8 | 62 | 355 | 2 | – | – | – | –
COc1ccc(OCC(O)CN2CCN(C(C(=O)NCc3ccccc3)c3ccc(C(F)(F)F)cc3)CC2)cc1 (stereo unspecified) | 13 | 68 | 429 | 2 | – | – | – | –
COc1ccc(OC)c(S(=O)(=O)NCC(c2ccccc2)N2CCN(CC(O)COc3ccc(Br)cc3)CC2)c1 (stereo unspecified) | 25 | 100 | 522 | 30 | – | – | – | –
COc1ccc(C(=O)NCC(c2ccccc2)N2CCN(CC(O)COc3ccc(Cl)cc3)CC2)cc1 (stereo unspecified) | 47 | 96 | 538 | 4 | – | – | – | –
COc1ccc(OCC(O)CN2CCN(C(CNC(=O)c3ccc(OC)cc3)c3ccccc3)CC2)cc1 (stereo unspecified) | 12 | 95 | 871 | 8 | – | – | – | –
Cc1ccc(C(C(=O)NCc2ccccc2)N2CCN(CC(O)COc3c(C)cccc3C)CC2)cc1 (stereo unspecified) | 26 | 44 | 325 | 2 | – | – | – | –
C=CCOCC(O)CN1CCN(C(c2ccccc2)c2ccc(Cl)cc2)CC1 (stereo unspecified) | – | – | 401 | 0.1 | 87 | 20 | – | –
OC(COc1ccccc1)CN1CCN(C(c2ccccc2)c2ccc(C(F)(F)F)cc2)CC1 (stereo unspecified) | 87 | – | 893 | 0.6 | – | 61 | 57 | –
O=C(NCC(c1ccccc1)N1CCN(CC(O)COc2ccccc2)CC1)c1ccc(F)cc1 (stereo unspecified) | 9 | 61 | 363 | 7 | – | – | – | –
COc1ccc(OCC(O)CN2CCN(C(CNC(=O)c3ccc(F)cc3)c3ccccc3)CC2)cc1 (stereo unspecified) | 33 | 22 | 531 | 3 | – | – | – | –
Cc1cccc(C)c1OCC(O)CN1CCN(C(C(=O)NCc2ccccc2)c2ccc(F)cc2)CC1 (stereo unspecified) | 20 | 38 | 149 | 2 | – | – | – | –
COc1ccc(CNC(=O)C(c2ccc(C)cc2)N2CCN(CC(O)COc3c(C)cccc3C)CC2)cc1 (stereo unspecified) | 14 | 74 | 351 | 3 | – | – | – | –
COc1ccc(CNC(=O)C(c2ccc(OC)cc2)N2CCN(CC(O)COc3c(C)cccc3C)CC2)cc1 (stereo unspecified) | 9 | 74 | 571 | 5 | – | – | – | –
Cc1cccc(S(=O)(=O)NCC(c2ccc(C(F)(F)F)cc2)N2CCN(CC(O)COc3ccc(Br)cc3)CC2)c1 (stereo unspecified) | 27 | 76 | – | 10 | – | – | – | 95
O=S(=O)(NCC(c1ccc(C(F)(F)F)cc1)N1CCN(CC(O)COc2ccc(F)cc2)CC1)c1ccccc1Cl (stereo unspecified) | 56 | 92 | – | 10 | – | – | – | 76
COc1ccc(OCC(O)CN2CCN(C(C(=O)NCc3ccccc3)c3ccc(C)cc3)CC2)cc1 (stereo unspecified) | 10 | 65 | 579 | 4 | – | – | – | –
COc1ccc(CNC(=O)C(c2ccc(F)cc2)N2CCN(CC(O)COc3ccc(OC)cc3)CC2)cc1 (stereo unspecified) | 10 | 81 | 214 | 7 | – | – | – | –
COc1ccc(CNC(=O)C(c2ccc(C(F)(F)F)cc2)N2CCN(CC(O)COc3ccc(OC)cc3)CC2)cc1 (stereo unspecified) | 0 | 88 | 359 | 4 | – | – | – | –
COc1ccc(OCC(O)CN2CCN(C(C(=O)NCc3ccccc3)c3ccc(F)cc3)CC2)cc1 (stereo unspecified) | 0 | 49 | 254 | 5 | – | – | – | –
